Laboratory results from patent USRE43802E1, “α- and β-amino acid hydroxyethylamino sulfonamides useful as retroviral protease inhibitors” (G.D. Searle LLC, priority 1992, dated 2012).
Read-outs that look alike come from different tables or passages of the source.

Assays:
[1] = target: T1, HIV protease (Human immunodeficiency virus type 1 group M subtype B, UniProt P04585); assay: HIV protease enzyme assay (fluorescence, substrate 2-Ile-Nle-Phe(p-NO2)-Gln-ArgNH2); assay type: biochemical; conditions: Table 21, HIV protease enzyme assay
T1 construct: HIV protease is diluted in the assay buffer to a final enzyme concentration of 12.3 nanomolar, based on a molecular weight of 10,780
Method: The enzyme method is described below. […] The positive control is MVT-101 (Miller, M. et al, Science, 246, 1149 (1989)] The assay conditions are as follows:
Assay buffer: 20 mM sodium phosphate, pH 6.4 20% glycerol 1 mM EDTA 1 mM DTT 0.1% CHAPS
The above described substrate is dissolved in DMSO, then diluted 10 fold in assay buffer. Final substrate concentration in the assay is 80 μM.
The final concentration of DMSO is 14% and the final concentration of glycerol is 18%. The test compound is dissolved in DMSO and diluted in DMSO to 10× the test concentration; 10 μl of the enzyme preparation is added, the materials mixed and then the mixture is incubated at ambient temperature for 15 minutes. The enzyme reaction is initiated by the addition of 40 μl of substrate. The increase in fluorescence is monitored at 4 time points (0, 8, 16 and 24 minutes) at ambient temperature. Each assay is carried out in duplicate wells.

[2] = system: HIV-1; assay: microbe, parasite or virus in culture; conditions: Human immunodeficiency virus 1, CCRF-CEM, 168 h
Method: Assays were performed in 96-well tissue culture plates. CEM cells, a CD4^+ cell line, were grown in RPMI-1640 medium (Gibco) supplemented with a 10% fetal calf serum and were then treated with polybrene (2 μg/ml). An 80 μl volume of medium containing 1×10^4 cells was dispensed into each well of the tissue culture plate. To each well was added a 100 μl volume of test compound dissolved in tissue culture medium (or medium without test compound as a control) to achieve the desired final concentration and the cells were incubated at 37° C. for 1 hour. […] Likewise, the intrinsic toxicity of the test compound was determined by adding medium without virus to several wells containing test compound. […]
Following the addition of virus, cells were incubated at 37° C. in a humidified, 5% CO2 atmosphere for 7 days. […] The absorbance at 590 nm was determined for each sample using a Molecular Devices microplate reader. Absorbance values for each set of wells is compared to assess viral control infection, uninfected control cell response as well as test compound by cytotoxicity and antiviral efficacy.

[3] = system: CEM cells; assay: Intrinsic toxicity of test compound in uninfected CEM cells (MTT); assay type: cell-based; conditions: Table 21
Description: Methods, 20, 309-321 (1988).

| Structure (SMILES) | melting point [°C] | IC50 ([1]; IC50 (nM)) [nM] | EC50 [2] [nM] | IC50 ([1]; read-out: IC50) [nM] | TD50 (nM) [3] |
| --- | --- | --- | --- | --- | --- |
| COc1ccc(S(=O)(=O)N(CC(C)C)C[C@@H](O)[C@H](Cc2ccccc2)NC(=O)O[C@H]2CCS(=O)(=O)C2)cc1 | 69 |  |  |  |  |
| CNC(=O)C[C@H](NC(=O)c1ccc2ccccc2n1)C(=O)N[C@@H](Cc1ccccc1)[C@H](O)CN(CCC(C)C)S(=O)(=O)c1ccccc1 [Entry 7] |  | 3 | 25 |  |  |
| CC(C)CN(C[C@@H](O)[C@H](Cc1ccccc1)NC(=O)OCc1cccnc1)S(=O)(=O)c1ccccc1 [Example 16] |  |  |  | 9 | 62,000 nM |
| COc1ccc(S(=O)(=O)N(CC(C)C)C[C@@H](O)[C@H](Cc2ccccc2)NC(=O)OCc2cccnc2)cc1 [Example 17] |  |  |  | 4 | 59,000 nM |
| COc1ccc(S(=O)(=O)N(CC(C)C)C[C@@H](O)[C@H](Cc2ccccc2)NC(=O)OCc2ccncc2)cc1 [Example 22] |  |  |  | 15 | 31,000 nM |
| COc1ccc(S(=O)(=O)N(CC(C)C)C[C@@H](O)[C@H](Cc2ccccc2)NC(=O)OCc2ccc[n+]([O-])c2)cc1 [Example 25] |  |  |  | 60 | 167,000 nM |
| COc1ccc(S(=O)(=O)N(CC(C)C)C[C@@H](O)[C@H](Cc2ccccc2)NC(=O)OC(C)(C)C)cc1 [Example 27] |  |  |  | 5 | 300,000 nM |
| COc1ccc(S(=O)(=O)N(CC(C)C)C[C@@H](O)[C@H](Cc2ccccc2)NC(=O)c2c(C)cccc2C)cc1 [Example 32] |  | 5 |  |  | 17,000 nM |
